Results published in patent publication US20240368133A1, “Compounds for the Treatment of Pain, in Particular, Neuropathic Pain, and/or Other Diseases or Disorders that are Associated with AT2R and/or AT2R Mediated Signaling” (Confo Therapeutics N.V., priority 2021, published 2024).
pIC50: −log10 of the molar value.

Tests used:
human AT1R = human AT1R (Homo sapiens (Human), UniProt P30556); test: Counterscreen radioligand binding assay, displacement of 125I-[Sar1, Ile8]-Angiotensin II, hAT1R WT; settings: for inhibition at 1 µM / inhibition at 10 µM: 125I-[Sar1, Ile8]-Ang II, semi-quantitative score; for inhibition at 1 µM: compound at 1 μM, read-out: % Displaced radioligand at 1 μM; for inhibition at 10 µM: compound at 10 μM, read-out: % Displaced radioligand at 10 μM; for pIC50: HEK-293 cell membranes, read-out: Binding affinity On hAT1R IC50
Experimental: (§1) All synthesized ligands were evaluated in a radioligand assay by displacing ^125I-[Sar1, Ile8]-Angiotensin II (Perkin Elmer, NEX248050UC) from human AT2R fused to Cb23 or human/rodent/cynomolgus/minipig/dog WT AT2R in HEK-293 cells membrane preparations, using C21 (Vicore Pharma) and Angiotensin II (endogenous ligand) as reference. The affinity was determined using an eight-point dose-response curve, each point performed in duplicates. The compounds were also evaluated in a counterscreen binding assay for displacement of ^125I-[Sar1, Ile8]-Angiotensin II binding to human AT1R in HEK-293 cell membranes. For AT1R, the percent displacement was determined at 1 μM and […] (in duplicates) or using an eight-point dose-response curve, each point performed in duplicates with Candesartan and Losartan used as reference.
(§2) For the AT2R/AT1R binding assays, cell membranes, expressing AT2R_Cb23, AT2R or AT1R, were incubated with 0.05 nM ^125I-[Sarl, Ile8]-Ang II. The ligand competition assay was performed in a total volume of 100 μL assay buffer (50 mM Tris, 5 mM MgCl2, 1 mM EDTA, 0.1% BSA, pH 7.4), at concentrations ranging from […] to 10 μM. For each experiment, each ligand concentration was tested in duplicate. Non-specific binding (NSB) was determined by the inclusion of 10 μM unlabeled [Sarl]-Ang II (Sigma Aldrich). The reaction was initiated by the addition of radioligand, after which the plates were incubated at 25° C. for one hour. The reaction was terminated by rapid filtration using a vacuum harvester, applying six washes with 100 μL of ice-cold wash buffer (50 mM Tris.HCl, pH 7.4). The filter plates GF/C (Perkin Elmer) were pre-soaked in 0.5% PEI. The residual amount of radioactivity was determined via liquid scintillation counting. IC50 values, representing the concentration at which each ligand displaced 50% of ^125I-[Sarl, Ile8]-Ang II, were calculated using GraphPad Prism 7.02 by applying a Non-linear regression equation (variable slope, four parameters) on the data. The obtained values serve as affinity estimates for each ligand and their ability to compete against the radioligand for binding with AT2R or AT1R, respectively.

human AT2R fused to Cb23 = human AT2R fused to Cb23 (Homo sapiens, UniProt P50052); test: Radioligand binding assay, displacement of 125I-[Sar1, Ile8]-Angiotensin II, hAT2R Cb23; settings: displacement of 125I-[Sar1, Ile8]-Angiotensin II, human AT2R fused to Cb23, HEK-293 cell membrane preparations; read-out: Binding affinity on hAT2R_Cb23 IC50
Experimental: as §1, §2

human AT1R, sequence (P30556 whole entry, the tested form may be a part): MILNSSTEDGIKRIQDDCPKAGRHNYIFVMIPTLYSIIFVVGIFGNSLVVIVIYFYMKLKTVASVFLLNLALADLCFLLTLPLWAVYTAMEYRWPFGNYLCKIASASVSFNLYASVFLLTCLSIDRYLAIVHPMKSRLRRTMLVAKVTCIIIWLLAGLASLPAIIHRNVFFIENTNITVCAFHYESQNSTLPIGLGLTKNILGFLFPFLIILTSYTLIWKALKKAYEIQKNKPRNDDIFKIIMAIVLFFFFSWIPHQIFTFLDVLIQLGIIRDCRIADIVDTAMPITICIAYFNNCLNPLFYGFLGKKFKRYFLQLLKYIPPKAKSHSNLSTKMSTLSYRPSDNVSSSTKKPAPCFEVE
human AT2R fused to Cb23, sequence (P50052 whole entry, looked up, the tested form may be a part): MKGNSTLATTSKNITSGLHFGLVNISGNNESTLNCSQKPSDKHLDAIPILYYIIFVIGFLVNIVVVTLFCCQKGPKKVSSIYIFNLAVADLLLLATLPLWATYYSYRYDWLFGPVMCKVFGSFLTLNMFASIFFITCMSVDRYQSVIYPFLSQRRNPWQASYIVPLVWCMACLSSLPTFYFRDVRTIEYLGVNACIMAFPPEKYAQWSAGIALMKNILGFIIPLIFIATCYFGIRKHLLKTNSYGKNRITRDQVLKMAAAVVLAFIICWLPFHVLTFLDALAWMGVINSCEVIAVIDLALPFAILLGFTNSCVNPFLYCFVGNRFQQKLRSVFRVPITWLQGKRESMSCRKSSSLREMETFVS

CC(C)=Cc1ccc(-c2nn[nH]n2)c(N2CCN(Cc3nc4ccccc4n3C)CC2)c1 [Compound A-21, 1-methyl-2-[[4-[5-(2-methylprop-1-enyl)-2-(2H-tetrazol-5-yl)phen-yl]piperazin-1-yl]-methyl]benzimid-azole]
inhibition at 1 µM (human AT1R): < 30% | inhibition at 10 µM (human AT1R): < 30% | pIC50 (human AT1R): 4.38 | pIC50 (human AT2R fused to Cb23): 6.31

COc1ccc(-c2nn[nH]n2)c(N2CCN(Cc3nc4ccccc4n3C)CC2)c1 [Compound A-22, 2-[[4-[5-methoxy-2-(2H-tetrazol-5-yl)phenyl]piperazin-1-yl]methyl]-1-methyl-benzimidazole]
inhibition at 1 µM (human AT1R): < 30% | inhibition at 10 µM (human AT1R): < 30% | pIC50 (human AT2R fused to Cb23): 4.71

CCOc1ccc(-c2nn[nH]n2)c(N2CCN(Cc3nc4ccccc4n3C)CC2)c1 [Compound A-23, 2-[[4-[5-ethoxy-2-(2H-tetrazol-5-yl)-phenyl]piperazin-1-yl]methyl]-1-meth-yl-benzimidazole]
inhibition at 1 µM (human AT1R): < 30% | inhibition at 10 µM (human AT1R): < 30% | pIC50 (human AT2R fused to Cb23): 5.63

CC(C)Oc1ccc(-c2nn[nH]n2)c(N2CCC(Cc3nc4ccccc4n3C)CC2)c1 [Compound A-25, 2-[[1-[5-isopropoxy-2-(2H-tetrazol-5-yl)phenyl]-4-piperidyl]methyl]-1-methyl-benzimid-azole]
inhibition at 1 µM (human AT1R): < 30% | inhibition at 10 µM (human AT1R): < 30% | pIC50 (human AT2R fused to Cb23): 5.08

O=c1[nH]c(CN2CCN(c3cc(C4CC4)ccc3-c3nn[nH]n3)CC2)nc2ccccc12 [Compound A-28, 2-[[4-[5-cyclopropyl-2-(2H-tetrazol-5-yl)phenyl]piperazin-1-yl]methyl]-3H-quinazolin-4-one]
inhibition at 1 µM (human AT1R): < 30% | inhibition at 10 µM (human AT1R): < 30% | pIC50 (human AT2R fused to Cb23): 5.45

CCc1ccc(C(=O)NS(=O)(=O)CC)c(N2CCN(Cc3nc4ccccc4s3)CC2)c1 [Compound A-33, 2-[4-(1,3-benzothiazol-2-ylmethyl)piperazin-1-yl]-4-ethyl-N-ethylsulfonyl-benzamide]
inhibition at 1 µM (human AT1R): < 30% | inhibition at 10 µM (human AT1R): < 30% | pIC50 (human AT2R fused to Cb23): 5.51

CCS(=O)(=O)NC(=O)c1ccc(C(C)C)cc1N1CCN(Cc2nc3ccccc3s2)CC1 [Compound A-34, 2-[4-(1,3-benzo-thiazol-2-ylmethyl)-piperazin-1-yl]-N-ethylsulfonyl-4-iso-propyl-benzamide]
inhibition at 1 µM (human AT1R): < 30% | inhibition at 10 µM (human AT1R): < 30% | pIC50 (human AT2R fused to Cb23): 6.32

CCS(=O)(=O)NC(=O)c1ccc(C2CC2)cc1N1CCN(Cc2nc3ccccc3s2)CC1 [Compound A-35, 2-[4-(1,3-benzothiazol-2-ylmethyl)piperazin-1-yl]-4-cyclopropyl-N-ethylsulfonyl-benzamide]
inhibition at 1 µM (human AT1R): < 30% | inhibition at 10 µM (human AT1R): < 30% | pIC50 (human AT1R): 4.50 | pIC50 (human AT2R fused to Cb23): 6.22

CCS(=O)(=O)NC(=O)c1ccc(CC(C)C)cc1N1CCN(Cc2nc3ccccc3s2)CC1 [Compound A-36, 2-[4-(1,3-benzo-thiazol-2-ylmethyl)-piperazin-1-yl]-N-ethylsulfonyl-4-isobutyl-benzamide]
inhibition at 1 µM (human AT1R): < 30% | inhibition at 10 µM (human AT1R): < 30% | pIC50 (human AT2R fused to Cb23): 5.85

CCS(=O)(=O)NC(=O)c1ccc(OC)cc1N1CCN(Cc2nc3ccccc3s2)CC1 [Compound A-37, 2-[4-(1,3-benzothiazol-2-ylmethyl)piperazin-1-yl]-N-ethylsulfonyl-4-methoxy-benzamide]
inhibition at 1 µM (human AT1R): < 30% | inhibition at 10 µM (human AT1R): < 30% | pIC50 (human AT2R fused to Cb23): 5.18

CCOc1ccc(C(=O)NS(=O)(=O)CC)c(N2CCN(Cc3nc4ccccc4s3)CC2)c1 [Compound A-38, 2-[4-(1,3-benzothiazol-2-ylmethyl)piperazin-1-yl]-4-ethoxy-N-ethylsulfonyl-benzamide]
inhibition at 1 µM (human AT1R): < 30% | inhibition at 10 µM (human AT1R): 30 to 50% | pIC50 (human AT1R): 4.87 | pIC50 (human AT2R fused to Cb23): 5.62

CCS(=O)(=O)NC(=O)c1ccc(OC(C)C)cc1CN1CCN(c2nc3ccccc3s2)CC1 [Compound A-39, 2-[[4-(1,3-benzothiazol-2-yl)piperazin-1-yl]methyl]-N-ethylsulfonyl-4-isopropoxy-benzamide]
inhibition at 1 µM (human AT1R): < 30% | inhibition at 10 µM (human AT1R): < 30% | pIC50 (human AT2R fused to Cb23): 5.55

CCS(=O)(=O)NC(=O)c1ccc(OC(C)C)cc1N1CCN(Cc2nc3ccccc3s2)CC1 [Compound A-40, 2-[4-(1,3-benzothiazol-2-ylmethyl)piperazin-1-yl]-N-ethylsulfonyl-4-isopropoxy-benzamide]
inhibition at 1 µM (human AT1R): < 30% | inhibition at 10 µM (human AT1R): < 30% | pIC50 (human AT1R): 4.44 | pIC50 (human AT2R fused to Cb23): 5.23

CCS(=O)(=O)NC(=O)c1ccc(OC2CC2)cc1N1CCN(Cc2nc3ccccc3s2)CC1 [Compound A-41, 2-[4-(1,3-benzothiazol-2-ylmethyl)piperazin-1-yl]-4-(cyclopropoxy)-N-ethylsulfonyl-benzamide]
inhibition at 1 µM (human AT1R): < 30% | inhibition at 10 µM (human AT1R): 30 to 50% | pIC50 (human AT1R): 4.78 | pIC50 (human AT2R fused to Cb23): 5.60

CCCOc1ccc(C(=O)NS(=O)(=O)CC)c(N2CCN(Cc3nc4ccccc4s3)CC2)c1 [Compound A-42, 2-[4-(1,3-benzothiazol-2-ylmethyl)piperazin-1-yl]-N-ethylsulfonyl-4-propoxy-benzamide]
inhibition at 1 µM (human AT1R): < 30% | inhibition at 10 µM (human AT1R): 30 to 50% | pIC50 (human AT1R): 4.58 | pIC50 (human AT2R fused to Cb23): 4.75

CCS(=O)(=O)NC(=O)c1ccc(OCC(C)C)cc1N1CCN(Cc2nc3ccccc3s2)CC1 [Compound A-43, 2-[4-(1,3-benzothiazol-2-ylmethyl)piperazin-1-yl]-N-ethylsulfonyl-4-isobutoxy-benzamide]
inhibition at 1 µM (human AT1R): < 30% | inhibition at 10 µM (human AT1R): 30 to 50% | pIC50 (human AT2R fused to Cb23): 5.36

CCNc1ccc(C(=O)NS(=O)(=O)CC)c(N2CCN(Cc3nc4ccccc4s3)CC2)c1 [Compound A-44, 2-[4-(1,3-benzo-thiazol-2-ylmethyl)-piperazin-1-yl]-4-(ethylamino)-N-ethylsulfonyl-benz-amide]
inhibition at 1 µM (human AT1R): < 30% | inhibition at 10 µM (human AT1R): < 30% | pIC50 (human AT1R): 4.46 | pIC50 (human AT2R fused to Cb23): 5.14

CCc1ccc(-c2nn[nH]n2)c(N2CCN(Cc3nc4ccccc4s3)CC2)c1 [Compound A-45, 2-[[4-[5-ethyl-2-(2H-tetrazol-5-yl)-phenyl]piperazin-1-yl]methyl]-1,3-benzothiazole]
inhibition at 1 µM (human AT1R): < 30% | inhibition at 10 µM (human AT1R): < 30% | pIC50 (human AT1R): 4.52 | pIC50 (human AT2R fused to Cb23): 5.60

CC(C)c1ccc(-c2nn[nH]n2)c(N2CCN(Cc3nc4ccccc4s3)CC2)c1 [Compound A-46]
inhibition at 1 µM (human AT1R): < 30% | inhibition at 10 µM (human AT1R): < 30% | pIC50 (human AT2R fused to Cb23): 5.75

c1ccc2sc(CN3CCN(c4cc(C5CC5)ccc4-c4nn[nH]n4)CC3)nc2c1 [Compound A-47, 2-[[4-[5-cycloprop-yl-2-(2H-tetrazol-5-yl)phenyl]piperazin-1-yl]methyl]-1,3-benzothiazole]
inhibition at 1 µM (human AT1R): < 30% | inhibition at 10 µM (human AT1R): < 30% | pIC50 (human AT2R fused to Cb23): 5.97

CC(C)Cc1ccc(-c2nn[nH]n2)c(N2CCN(c3nc4ccccc4s3)CC2)c1 [Compound A-49, 2-[4-[5-isobutyl-2-(2H-tetrazol-5-yl)-phenyl]piperazin-1-yl]-1,3-benzo-thiazole]
inhibition at 1 µM (human AT1R): < 30% | inhibition at 10 µM (human AT1R): 30 to 50% | pIC50 (human AT1R): 4.69 | pIC50 (human AT2R fused to Cb23): 5.63

CC(C)Oc1ccc(-c2nn[nH]n2)c(CN2CCN(c3nc4ccccc4s3)CC2)c1 [Compound A-50, 2-[4-[[5-isoprop-oxy-2-(2H-tetrazol-5-yl)phenyl]meth-yl]piperazin-1-yl]-1,3-benzothiazole]
inhibition at 1 µM (human AT1R): < 30% | pIC50 (human AT1R): 4.54 | pIC50 (human AT2R fused to Cb23): 4.98

c1ccc2sc(CN3CCN(c4cc(OC5CC5)ccc4-c4nn[nH]n4)CC3)nc2c1 [Compound A-52, 2-[[4-[5-(cyclopropoxy)-2-(2H-tetrazol-5-yl)phenyl]piperazin-1-yl]methyl]-1,3-benzothiazole]
inhibition at 1 µM (human AT1R): < 30% | inhibition at 10 µM (human AT1R): < 30% | pIC50 (human AT2R fused to Cb23): 5.35

CC(C)COc1ccc(-c2nn[nH]n2)c(N2CCN(Cc3nc4ccccc4s3)CC2)c1 [Compound A-53, 2-[[4-[5-isobutoxy-2-(2H-tetrazol-5-yl)phenyl]piperazin-1-yl]methyl]-1,3-benzothiazole]
inhibition at 1 µM (human AT1R): < 30% | inhibition at 10 µM (human AT1R): < 30% | pIC50 (human AT1R): 4.34 | pIC50 (human AT2R fused to Cb23): 5.12
